Counter-ions that a name gives are not always drawn.
What was measured:
Format in all cases: biochemical
[1] = target: T1, JAK1 (Homo sapiens, UniProt P23458); experiment: JAK tyrosine kinase inhibitory activity in the presence of 1 mM ATP (ELISA), JAK1
T1 construct: purchased Carna Biosciences, Inc
Protocol: (§1) The test compound was dissolved in dimethyl sulfoxide (DMSO) to 10 mM and further diluted with DMSO to the concentrations of 1000, 100, 10, 1, 0.1 and 0.01 μM, respectively. For JAK1, these solutions of the test compound at the six concentrations 10 mM, 1000 μM, 100 μM, 10 μM, 1 μM and 0.1 μM were used. For JAK2 and JAK3, these solutions of the test compound at the six concentrations 1000 μM, 100 μM, 10 μM, 1 μM, 0.1 μM and 0.01 μM were used. The test compound solutions were diluted further to 20-fold with an assay buffer to obtain a sample solution. 15 mM Tris-HCl (pH7.5), 0.01 (v/v) % Tween-20 and 1 mM dithiothreitol were used as an assay buffer. DMSO was diluted to 20-fold with the assay buffer and was used as a negative control.
(§2) The activity was determined by ELISA method. Each of the sample solutions was added to a streptavidin coated 96-well plate (DELFIA Strip Plate 8×12 well, PerkinElmer) at 10 μL/well (n=2). […] Finally, JAK tyrosine kinase (Carna Biosciences, Inc.), which was previously diluted with the assay buffer to 7.5 nM for JAK1 and 0.75 nM for JAK2 and JAK3, was added to the plate at 20 μL/well, and the plate was incubated at 30° C. for 1 h. The plate was washed four times with buffer (50 mM Tris-HCl (pH 7.5), 150 mM NaCl, 0.02 (v/v) % Tween-20). A blocking buffer (0.1% Bovine Serum Albumin, 50 mM Tris-HCl (pH 7.5), 150 mM NaCl, 0.02 (v/v) % Tween-20) was added to the plate at 150 μL/well, and the plate was blocked at 30° C. for 1 h. The blocking buffer was removed, and a horse radish peroxidase-labeled anti-phosphorylated tyrosine antibody (BD Biosciences, Inc.) (diluted to 10000-fold with the blocking buffer) was added to the plate at 100 μL/well, and the plate was incubated at 30° C. for 30 min. The plate was washed with the washing buffer four times, and 3,3′,5,5′-tetramethylbenzidine solution (Nacalai Tesque) was added to the plate at 100 μL/well to develop the color for 10 minutes. To the plate was added 0.1 M sulfuric acid at 100 μL/well to stop the reaction. The absorbance at 450 nm was measured using a microplate reader (BIO-RAD).

[2] = target: T2, JAK2 (Homo sapiens, UniProt O60674); experiment: JAK tyrosine kinase inhibitory activity in the presence of 1 mM ATP (ELISA), JAK2
T2 construct: purchased Carna Biosciences, Inc
Protocol: as §1, §2

[3] = target: T3, JAK3 (Homo sapiens, UniProt P52333); experiment: JAK tyrosine kinase inhibitory activity in the presence of 1 mM ATP (ELISA), JAK3
T3 construct: purchased Carna Biosciences, Inc
T3 sequence (P52333 1-1124): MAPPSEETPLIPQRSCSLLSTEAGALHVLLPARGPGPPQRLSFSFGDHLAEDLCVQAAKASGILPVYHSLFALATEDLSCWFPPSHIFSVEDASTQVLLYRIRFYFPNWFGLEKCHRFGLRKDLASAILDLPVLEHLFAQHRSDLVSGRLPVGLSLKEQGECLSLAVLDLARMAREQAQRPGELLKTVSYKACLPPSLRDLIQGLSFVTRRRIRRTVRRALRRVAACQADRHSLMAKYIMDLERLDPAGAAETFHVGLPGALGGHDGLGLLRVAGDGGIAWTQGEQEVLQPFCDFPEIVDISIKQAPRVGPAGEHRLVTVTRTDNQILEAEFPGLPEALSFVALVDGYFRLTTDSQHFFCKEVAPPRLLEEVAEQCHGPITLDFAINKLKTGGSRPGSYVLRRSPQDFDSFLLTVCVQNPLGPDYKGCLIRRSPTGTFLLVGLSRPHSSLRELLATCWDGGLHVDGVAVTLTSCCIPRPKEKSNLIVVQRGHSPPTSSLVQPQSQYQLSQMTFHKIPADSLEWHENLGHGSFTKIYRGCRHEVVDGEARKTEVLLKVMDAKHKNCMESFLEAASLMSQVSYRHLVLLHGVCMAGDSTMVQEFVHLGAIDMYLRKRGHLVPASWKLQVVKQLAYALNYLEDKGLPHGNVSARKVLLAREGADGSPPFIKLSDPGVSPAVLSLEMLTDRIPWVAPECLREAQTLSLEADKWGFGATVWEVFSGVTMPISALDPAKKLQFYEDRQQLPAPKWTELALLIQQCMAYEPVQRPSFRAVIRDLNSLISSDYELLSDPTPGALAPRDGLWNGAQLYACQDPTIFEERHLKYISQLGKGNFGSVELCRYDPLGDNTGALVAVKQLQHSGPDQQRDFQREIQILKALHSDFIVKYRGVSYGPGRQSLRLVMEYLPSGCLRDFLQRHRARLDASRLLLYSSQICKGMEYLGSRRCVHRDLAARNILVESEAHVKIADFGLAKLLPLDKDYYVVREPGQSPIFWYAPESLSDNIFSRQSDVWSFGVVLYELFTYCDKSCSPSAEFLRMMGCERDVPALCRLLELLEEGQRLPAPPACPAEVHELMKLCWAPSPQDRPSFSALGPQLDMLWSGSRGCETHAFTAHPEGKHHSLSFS
Protocol: as §1, §2

T2 sequence (O60674 whole entry): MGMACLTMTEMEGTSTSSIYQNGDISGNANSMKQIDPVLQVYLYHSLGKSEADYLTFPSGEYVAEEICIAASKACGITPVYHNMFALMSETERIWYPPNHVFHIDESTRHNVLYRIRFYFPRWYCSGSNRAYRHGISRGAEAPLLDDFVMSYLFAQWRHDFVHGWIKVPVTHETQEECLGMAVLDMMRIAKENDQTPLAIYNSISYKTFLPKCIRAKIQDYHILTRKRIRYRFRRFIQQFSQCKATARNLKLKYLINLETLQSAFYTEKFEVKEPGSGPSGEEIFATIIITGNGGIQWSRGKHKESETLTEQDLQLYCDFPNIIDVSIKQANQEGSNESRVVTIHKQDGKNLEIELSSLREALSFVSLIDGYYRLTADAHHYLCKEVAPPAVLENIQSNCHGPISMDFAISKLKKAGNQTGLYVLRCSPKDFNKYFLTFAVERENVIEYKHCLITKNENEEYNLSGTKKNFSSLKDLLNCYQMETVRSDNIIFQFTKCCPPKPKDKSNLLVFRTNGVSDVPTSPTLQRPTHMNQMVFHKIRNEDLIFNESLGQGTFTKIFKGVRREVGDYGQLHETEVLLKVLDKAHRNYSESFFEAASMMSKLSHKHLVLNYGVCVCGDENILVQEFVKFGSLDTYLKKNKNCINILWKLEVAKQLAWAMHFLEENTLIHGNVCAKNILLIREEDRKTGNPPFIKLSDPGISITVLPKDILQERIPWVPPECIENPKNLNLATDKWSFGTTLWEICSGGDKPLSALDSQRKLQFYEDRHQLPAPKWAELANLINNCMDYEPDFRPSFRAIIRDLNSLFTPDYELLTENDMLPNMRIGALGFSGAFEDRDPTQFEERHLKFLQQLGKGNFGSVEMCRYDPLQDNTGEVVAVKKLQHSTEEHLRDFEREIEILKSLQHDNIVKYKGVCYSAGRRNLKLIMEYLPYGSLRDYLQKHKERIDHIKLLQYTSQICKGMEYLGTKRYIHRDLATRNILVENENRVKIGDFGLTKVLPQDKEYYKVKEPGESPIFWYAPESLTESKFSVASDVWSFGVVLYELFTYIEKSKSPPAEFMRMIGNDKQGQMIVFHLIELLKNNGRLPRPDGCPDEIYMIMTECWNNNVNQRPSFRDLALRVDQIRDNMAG
T1 sequence (P23458 whole entry): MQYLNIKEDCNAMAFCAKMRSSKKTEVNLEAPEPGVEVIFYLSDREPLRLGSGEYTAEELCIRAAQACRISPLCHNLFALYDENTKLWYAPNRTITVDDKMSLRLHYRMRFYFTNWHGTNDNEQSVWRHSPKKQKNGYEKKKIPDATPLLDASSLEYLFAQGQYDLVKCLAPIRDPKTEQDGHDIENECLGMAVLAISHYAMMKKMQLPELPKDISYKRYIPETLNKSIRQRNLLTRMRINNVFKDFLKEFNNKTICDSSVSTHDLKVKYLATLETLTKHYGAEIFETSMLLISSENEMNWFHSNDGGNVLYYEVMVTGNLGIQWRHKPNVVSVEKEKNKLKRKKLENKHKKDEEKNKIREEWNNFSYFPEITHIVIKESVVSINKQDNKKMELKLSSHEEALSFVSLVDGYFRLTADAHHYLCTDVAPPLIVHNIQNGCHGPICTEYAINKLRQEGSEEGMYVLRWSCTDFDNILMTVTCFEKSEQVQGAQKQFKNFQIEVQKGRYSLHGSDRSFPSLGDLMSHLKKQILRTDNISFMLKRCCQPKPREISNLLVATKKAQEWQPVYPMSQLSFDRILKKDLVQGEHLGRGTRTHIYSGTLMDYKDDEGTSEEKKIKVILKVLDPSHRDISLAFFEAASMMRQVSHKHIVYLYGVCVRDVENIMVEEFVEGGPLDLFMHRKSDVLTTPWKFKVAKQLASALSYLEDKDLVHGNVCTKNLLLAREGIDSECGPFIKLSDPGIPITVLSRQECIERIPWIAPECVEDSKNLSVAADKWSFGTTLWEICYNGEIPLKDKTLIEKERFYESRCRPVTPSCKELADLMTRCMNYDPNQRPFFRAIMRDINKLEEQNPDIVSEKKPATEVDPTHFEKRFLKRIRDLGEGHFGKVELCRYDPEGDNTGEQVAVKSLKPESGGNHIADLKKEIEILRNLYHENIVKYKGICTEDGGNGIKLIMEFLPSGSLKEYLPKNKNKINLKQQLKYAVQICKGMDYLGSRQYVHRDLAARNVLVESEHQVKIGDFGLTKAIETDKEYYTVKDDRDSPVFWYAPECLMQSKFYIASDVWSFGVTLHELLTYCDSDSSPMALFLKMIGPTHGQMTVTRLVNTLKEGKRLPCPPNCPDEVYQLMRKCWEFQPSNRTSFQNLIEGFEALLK

| Structure (SMILES) | IC50 [1] [nM] | IC50 [2] [nM] | IC50 [3] [nM] |
| --- | --- | --- | --- |
| CC[C@H](C)Nc1cc(C(=O)N2CCC(NC(=O)OC)CC2)nc(-c2cnn3ccsc23)n1 [Example 1, Methyl [1-({6-[(2S)-butan-2-ylamino]-2-(pyrazolo [5,1-b][1,3]thiazol-7-yl)pyrimidin-4-yl}carbonyl)piperidin-4-yl]carbamate Tosylate Monohydrate] | 310 | 3700 | 3000 |
| CC[C@@H](C)Nc1cc(C(=O)N2CCC(NC(=O)OC)CC2)nc(-c2cnn3ccsc23)n1 [Example 2, Methyl [1-({6-[(2R)-butan-2-ylamino]-2-(pyrazolo[5,1-b][1,3]thiazol-7-yl)pyrimidin-4-yl}carbonyl)piperidin-4-yl]carbamate Tosylate Monohydrate] | 470 | 5700 | 6000 |
| COC(=O)NC1CCN(C(=O)c2cc(N[C@@H](C)C3CC3)nc(-c3cnn4ccsc34)n2)CC1 [Example 3, Methyl (1-{[6-{[(1S)-1-cyclopropylethyl]amino}-2-(pyrazolo[5,1-b][1,3]thiazol-7-yl)pyrimidin-4-yl]carbonyl}piperidin-4-yl)carbamate Tosylate Monohydrate] | 270 | 2600 | 1900 |

Reference: US11377453B2, “Crystal of compound having JAK-inhibiting activity” (NIPPON SHINYAKU CO., LTD., priority 2016, dated 2022)
